The assay addresses α7 nAChR subtype (Rattus norvegicus, UniProt Q05941). Type of assay: binding. To be noted: read-out: KD of radioligand (saturation curves, one site model).

Chain of α7 nAChR subtype (Q05941 23-502 limits assumed): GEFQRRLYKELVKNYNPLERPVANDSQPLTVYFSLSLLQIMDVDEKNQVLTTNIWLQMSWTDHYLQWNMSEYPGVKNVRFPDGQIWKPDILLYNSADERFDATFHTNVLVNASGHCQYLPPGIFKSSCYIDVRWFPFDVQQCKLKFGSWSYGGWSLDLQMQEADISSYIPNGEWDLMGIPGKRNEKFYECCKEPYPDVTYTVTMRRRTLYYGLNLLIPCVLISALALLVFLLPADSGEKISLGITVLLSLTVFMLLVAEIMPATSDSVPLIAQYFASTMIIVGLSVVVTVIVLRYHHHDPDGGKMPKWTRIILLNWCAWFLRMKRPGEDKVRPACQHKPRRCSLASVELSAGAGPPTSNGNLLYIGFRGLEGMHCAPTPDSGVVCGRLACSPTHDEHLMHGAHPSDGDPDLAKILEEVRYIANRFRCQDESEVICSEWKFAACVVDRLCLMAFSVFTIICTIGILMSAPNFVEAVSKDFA

For the substance “125I-α-Bungarotoxin [Example 125I-α-BTX]”, the Kd is 1.67 nM.
